Experiments:
[1] = Pharmacokinetics following PO administration to dogs, Study A (oxycodone in plasma)
[2] = Spacer leaving group cyclization release rate in phosphate buffer; assay type: physicochemical; conditions: 2.18 mM initial, 50 mM pH 7.4 phosphate buffer, 20° C.
Excerpt: (§1) Table 3 indicates the results of exposure of Compound KC-8 to trypsin. […] Table 3 also indicates the cyclization rate of the cyclizable spacer leaving group of Compound KC-22. The results are expressed as half-life of compound disappearance.

[3] = Pharmacokinetics of Compound KC-8 following PO administration to dogs, Study B; assay type: in vivo, dog; conditions: 4.55 to 18.2 mg/kg
Protocol: Compound KC-8 was also dosed to dogs in a separate experiment at the doses indicated in Table 2B, and samples were collected at various times over a 48-h period. Otherwise, the procedures were the same as that described for Study A.

[4] = target: T1, trypsin from bovine pancreas (Bos taurus, UniProt P00760); test: In vitro trypsin-mediated prodrug cleavage; assay type: biochemical
T1 construct: purchased Sigma-Aldrich T8003; host or cells: bovine pancreas
T1 sequence (P00760 24-246): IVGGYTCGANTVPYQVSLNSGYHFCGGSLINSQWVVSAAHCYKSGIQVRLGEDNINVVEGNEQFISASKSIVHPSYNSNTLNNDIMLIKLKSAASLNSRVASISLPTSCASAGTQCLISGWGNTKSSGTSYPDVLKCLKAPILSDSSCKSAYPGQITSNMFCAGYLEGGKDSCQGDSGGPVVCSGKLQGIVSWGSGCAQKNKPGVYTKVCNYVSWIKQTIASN
Protocol: (§2) The reactions were conducted at 37° C. for 24 h.
as §1

trypsin = target: T2, trypsin (Bos taurus, UniProt P00760); test: In vitro trypsin-mediated prodrug cleavage; assay type: biochemical, bovine; conditions: bovine, trypsin from bovine pancreas; 0.761 mM KC-8•2HCl, Tris pH 8, 37° C.; footnote: adjusted to 4815 BAEE U/mL trypsin
T2 construct: purchased Sigma-Aldrich T8003; host or cells: bovine pancreas
T2 sequence (P00760 24-246): T1 sequence (P00760 24-246)
Protocol: as §2, §1

[5] = male, beagle, dog, plasma, po, 2 mg/kg

## COc1ccc2c3c1O[C@H]1C(=O)CC[C@@]4(O)[C@@H](C2)N(C)CC[C@]314.Cl [Oxycodone, oxycodone HCl, reference compound]
[1]; [5]
  AUC: 418 ± 54 ng·h/mL
  Cmax: 193 ± 69 ng/mL
  Tmax: 30 min

## COc1ccc2c3c1O[C@H]1C(OC(=O)N(C)CC(C)(C)CN)=CC[C@@]4(O)[C@@H](C2)N(C)CC[C@]314 [Compound KC-22, N-1-[3-(oxycodone-6-enol-carbonyl-methyl-amino)-2,2-dimethyl-propylamine]]
[2]
  Disappearance half-life: 624 ± 0.36 min

## N-1-[2-(oxycodone-6-enol-carbonyl-methyl-amino)-ethylamine]-arginine-malonic acid [Compound KC-3]
[1]; oxycodone in dog plasma, 4.15 mg/kg ([…]) PO, LLOQ […]
  OC Cmax ± sd: 10.2 ± 3.3 ng/mL
[1]; oxycodone in dog plasma, 4.15 mg/kg PO
  AUC ± sd 0-24 h: 65.6 ± 22 ng·h/mL

## COc1ccc2c3c1O[C@H]1C(OC(=O)N(C)CC(C)(C)CNC(=O)[C@H](CCCNC(=N)N)NC(=O)CNC(=O)CC(=O)O)=CC[C@@]4(O)[C@@H](C2)N(C)CC[C@]314 [Compound KC-8, N-1-[3-(oxycodone-6-enol-carbonyl-methyl-amino)-2,2-dimethyl-propylamine]-arginine-glycine-malonic acid]
[3]
  oral PK profile in dogs: reproducible oral PK profile in dogs that is dose proportional
[1]; dogs, PO
  oxycodone PK profile compared to administration of oxycodone: suppressed oxycodone Cmax, delayed oxycodone Tmax and extended oxycodone exposure time (AUC)
  release of oxycodone into dog plasma compared to Compound KC-3: significantly enhanced release of oxycodone into dog plasma (higher Cmax and AUC)
[4]; 0.761 mM KC-8•2HCl, Tris pH 8, 37° C.
  OC formation rate: 0.296 ± 0.044 μmol/h/BAEE U
[4]; in vitro
  cleavage by trypsin: can be cleaved by trypsin
trypsin
  half-life at 0.761 mM: 11.3 ± 0.48 min

From US8962547B2 (Signature Therapeutics, Inc., priority 2011, dated 2015)
